# Source: article PMC11121183, “Functional Characterization of a Spectrum of Genetic Variants in a Family with Succinic Semialdehyde Dehydrogenase Deficiency” (International Journal of Molecular Sciences, 2024)
# Numbering of substitutions follows the chain as printed. Numbers in names are those of the source.
# B1: Succinic semialdehyde dehydrogenase (SSADH), wildtype, recombinant (amino acids 48-535) (enzyme, human, UniProt P51649-1 48-535, looked up)
# chain: AGRLAGLSAALLRTDSFVGGRWLPAAATFPVQDPASGAALGMVADCGVREARAAVRAAYEAFCRWREVSAKERSSLLRKWYNLMIQNKDDLARIITAESGKPLKEAHGEILYSAFFLEWFSEEARRVYGDIIHTPAKDRRALVLKQPIGVAAVITPWNFPSAMITRKVGAALAAGCTVVVKPAEDTPFSALALAELASQAGIPSGVYNVIPCSRKNAKEVGEAICTDPLVSKISFTGSTTTGKILLHHAANSVKRVSMELGGLAPFIVFDSANVDQAVAGAMASKFRNTGQTCVCSNQFLVQRGIHDAFVKAFAEAMKKNLRVGNGFEEGTTQGPLINEKAVEKVEKQVNDAVSKGATVVTGGKRHQLGKNFFEPTLLCNVTQDMLCTHEETFGPLAPVIKFDTEEEAIAIANAADVGLAGYFYSQDPAQIWRVAEQLEVGMVGVNEGLISSVECPFGGVKQSGLGREGSKYGIDEYLELKYVCYGGL
# notes: No thrombin cleavage of the His-tag is described; also called WT SSADH; WT; source: E. coli BL21, purified (HisTrap, single step)
# B2: Succinic semialdehyde dehydrogenase (SSADH) His180Tyr variant, recombinant (amino acids 48-535) (enzyme, human, UniProt P51649-1 48-535, looked up)
# chain: B1 chain with H133Y
# notes: No thrombin cleavage of the His-tag is described; also called H180Y; rs2760118 variant; source: E. coli BL21, purified (HisTrap, single step)
# Experiments:
# [1] = target: T1, Succinic semialdehyde dehydrogenase (SSADH) (Homo sapiens, UniProt P51649); test: intrinsic fluorescence titration (excitation […] nm); CD and Tm shift of about […] °C in support; format: binding
# T1 construct: gene ALDH5A1; recombinant SSADH, amino acids 48–535, N-terminal His-tag
# T1 sequence (P51649 48-535): B1 chain
# [2] = target: T2, Succinic semialdehyde dehydrogenase (SSADH) (Homo sapiens, UniProt P51649, H180Y); test: as above; format: binding
# T2 construct: gene ALDH5A1; recombinant SSADH, amino acids 48–535, N-terminal His-tag
# T2 sequence (P51649 48-535 H180Y): B1 chain with H133Y
# [3] = target: T3, Succinic semialdehyde dehydrogenase (SSADH) (Homo sapiens, UniProt P51649, H180Y/N255D); test: intrinsic fluorescence titration (excitation […] nm); format: binding
# T3 construct: gene ALDH5A1; recombinant SSADH, amino acids 48–535, N-terminal His-tag
# T3 sequence (P51649 48-535 H180Y/N255D): B1 chain with H133Y, N208D
# [4] = target: T1, Succinic semialdehyde dehydrogenase (SSADH); test: purified enzyme turnover, NADH formation at […] nm ([…] SSA, […] NAD+); format: biochemical
# [5] = target: T2, Succinic semialdehyde dehydrogenase (SSADH); test: as above; format: biochemical
# [6] = target: the molecule itself; test: SEC; Superdex 200 (10/300), 100 mM potassium phosphate, 150 mM NaCl, pH 8; 0.1 to 5 mg/mL protein loaded; 280 nm signal
molecule,measurement,setting,value
NC(=O)c1ccc[n+]([C@@H]2O[C@H](COP(=O)([O-])OP(=O)(O)OC[C@H]3O[C@@H](n4cnc5c(N)ncnc54)[C@H](O)[C@@H]3O)[C@@H](O)[C@H]2O)c1 [NAD+],Kd,[1],2.8 ± 0.3 µM
same,Kd,[2],3 ± 1 µM
same,Kd,[3],33 ± 13 µM
O=CCCC(=O)O [Succinic semialdehyde],"purified enzyme turnover, NADH formation at 340 nm (10 μM SSA, 500 μM NAD+)",[4],65 s⁻¹
same,"purified enzyme turnover, NADH formation at 340 nm (10 μM SSA, 500 μM NAD+)",[5],54 s⁻¹
B1,stoichiometry N,[6],4
B2,stoichiometry N,[6],4
